Molecules are shown by their SMILES.

In this experiment the target is T1, TweCAδ (Conticribra weissflogii, UniProt Q5U9J1).
T1 construct: gene ca1; recombinant protein produced as reported earlier by the group
T1 sequence (Q5U9J1 1-281): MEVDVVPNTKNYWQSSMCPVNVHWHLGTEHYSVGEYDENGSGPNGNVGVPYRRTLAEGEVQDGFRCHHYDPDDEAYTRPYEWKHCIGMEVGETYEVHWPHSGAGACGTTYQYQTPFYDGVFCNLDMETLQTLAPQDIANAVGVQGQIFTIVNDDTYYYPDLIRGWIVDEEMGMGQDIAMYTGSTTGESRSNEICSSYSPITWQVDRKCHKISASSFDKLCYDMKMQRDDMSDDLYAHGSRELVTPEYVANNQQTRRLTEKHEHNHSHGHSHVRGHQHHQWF
Put plainly: stopped-flow CO2 hydrase assay. Particulars: read-out: RR^1NCS2M (16-36) / KI (nM)^a / TweCAδ. It is filed as biochemical.
As for `CC(=O)NC1CCCN(C(=S)S)C1` (stereo not shown) [compound 30, DTC 30], the Ki came to 783 nM.

Turning to `O=C(O)C1CCN(C(=S)S)CC1` [compound 29, DTC 29], the Ki is 8980 nM. For the molecule `CN1CCN(NC(=O)S)CC1` [compound 7, MTC 7], the Ki turned out to be 487 nM. For `CN(Cc1ccccc1)C(=O)S` [compound 10, MTC 10] the value was more than 20000 nM; for `OC1CCCN(C(=S)S)C1` (stereo not shown) [compound 24, DTC 24], more than 20000 nM; for `NS(=O)(=O)c1ccc(CCNC(=S)S)cc1` [compound 36, DTC 36], 704 nM. On to `O=C(S)N1CCN(c2cccc(Cl)c2)CC1` [compound 13, MTC 13], for which the Ki is 1510 nM. For the molecule `S=C(S)NCCc1ccccc1` [compound 35, DTC 35], the Ki turned out to be 897 nM. On to `O=C(S)NCCc1ccccc1` [compound 11, MTC 11], for which the Ki amounted to 997 nM. For `O=C(S)N1CCOCC1` [compound 6, MTC 6] the value was more than 20000 nM; for `O=C(S)N1CCN(c2ccc(C(F)(F)F)cc2)CC1` [compound 15, MTC 15], 1150 nM; for `O=C(O)C1CCCN(C(=S)S)C1` (stereo not shown) [compound 26, DTC 26], 8430 nM. Regarding `O=C(CN1CCN(C(=S)S)CC1)NC1CCCCC1` [compound 34, DTC 34], the Ki was found to be 791 nM. For `OCCCCCNC(=S)S` [compound 19, DTC 19] the value was 8600 nM; for `S=C(S)N1CCCCC1` [compound 23, DTC 23], more than 20000 nM. On to `O=C(O)C1CCCCN1C(=S)S` (stereo not shown) [compound 25, DTC 25], for which the Ki is more than 20000 nM. Turning to `CC1COCCN1C(=S)S` (stereo not shown) [compound 32, DTC 32], the Ki was more than 20000 nM. As to `S=C(S)N[C@@H]1CN2CCC1CC2` [compound 22, DTC 22], the Ki is 7990 nM. For `O=C(O)C1COCCN1C(=S)S` (stereo not shown) [compound 33, DTC 33], the Ki is more than 20000 nM. For `OCCCCNC(=S)S` [compound 18, DTC 18] the value was 7170 nM.

On to `O=C(O)[C@@H]1CCCN(C(=S)S)C1` [compound 27, DTC 27], for which the Ki is 93.6 nM. Consider `O=C(S)N1CCN(c2ccc(F)cc2)CC1` [compound 14, MTC 14], for which the Ki was 1500 nM. For the molecule `COc1ccc(CCNC(=O)S)cc1OC` [compound 12, MTC 12], the Ki is 67.7 nM. Regarding `S=C(S)N[C@H]1CN2CCC1CC2` [compound 21, DTC 21], the Ki is more than 20000 nM. For the molecule `S=C(S)NC1CN2CCC1CC2` (stereo not shown) [compound 20, DTC 20], the Ki was more than 20000 nM. In the case of `CCOC(=O)CN(C)C(=O)S` [compound 5, MTC 5], the Ki was more than 20000 nM. As for `CC(C)CN(CC(C)C)C(=O)S` [compound 4, MTC 4], the Ki is more than 20000 nM. In the case of `O=C(CN1CCN(C(=O)S)CC1)NC1CCCCC1` [compound 9, MTC 9], the Ki is 129 nM. Take `O=C(O)[C@H]1CCCN(C(=S)S)C1` [compound 28, DTC 28]: the Ki is 556 nM. With `CCCCN(CCCC)C(=O)S` [compound 3, MTC 3], the Ki amounted to 1140 nM. In the case of `CCCN(CCC)C(=O)S` [compound 1, MTC 1], the Ki worked out at 807 nM. For `CN(C)CCNC(=S)S` [compound 16, DTC 16] the value was 8410 nM. For `CCCCN(CC)C(=O)S` [compound 2, MTC 2], the Ki is 783 nM. Regarding `OCCCNC(=S)S` [compound 17, DTC 17], the Ki amounted to 8690 nM.
